According to the supplement of paper PMC10307832:

Legend:
Experiment in all cases: relative viability (nuclei count vs DMSO), 5 days (fraction); higher = more cells survive
201T = test system: 201T
In short: (§1)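 Cells from lung cancer lines were seeded into 1536-well plates and, one day later, dosed by pin tool. Treatments were either a single drug or a fixed dose of an anchor drug with five library-drug doses (not always all listed) in √10 steps. After 5 days, nuclei were stained in a one-step fixation (final 0.05% Triton X-100, 1% formaldehyde, 1 ug/ml Hoechst) and counted on 4× images, and relative viability is the treated-to-vehicle nuclei ratio, as the median of duplicate plates.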

A-427 = test system: A-427
In short: as §1

ABC-1 = test system: ABC-1
In short: as §1

BEN = test system: BEN
In short: as §1

CAL-12T = test system: CAL-12T
In short: as §1

H3255 = test system: H3255
In short: as §1

LC-2-ad = test system: LC-2-ad
In short: as §1

LCLC-97TM1 = test system: LCLC-97TM1
In short: as §1

NCI-H1650 = test system: NCI-H1650
In short: as §1

NCI-H1651 = test system: NCI-H1651
In short: as §1

NCI-H1792 = test system: NCI-H1792
In short: as §1

NCI-H1915 = test system: NCI-H1915
In short: as §1

NCI-H1944 = test system: NCI-H1944
In short: as §1

NCI-H2023 = test system: NCI-H2023
In short: as §1

NCI-H2087 = test system: NCI-H2087
In short: as §1

NCI-H441 = test system: NCI-H441
In short: as §1

NCI-H460 = test system: NCI-H460
In short: as §1

NCI-H520 = test system: NCI-H520
In short: as §1

NCI-H596 = test system: NCI-H596
In short: as §1

NCI-H650 = test system: NCI-H650
In short: as §1

NCI-H661 = test system: NCI-H661
In short: as §1

NCI-H727 = test system: NCI-H727
In short: as §1

PC-3 [JPC-3] = test system: PC-3 [JPC-3]
In short: as §1

What does the source list for `NC(=O)Nc1cc(-c2cccc(F)c2)sc1C(=O)N[C@H]1CCCNC1` [AZD7762] + O=C(c1cc(Cc2n[nH]c(=O)c3ccccc23)ccc1F)N1CCN(C(=O)C2CC2)CC1 [Olaparib] (partner 8 µM)?
relative viability (201T; first compound 0.01 µM): 0.821; relative viability (201T; first compound 0.03162 µM): 0.854; relative viability (201T; first compound 0.1 µM): 0.885; relative viability (201T; first compound 0.3162 µM): 0.566; relative viability (201T; first compound 1 µM): 0.475; relative viability (A-427; first compound 0.01 µM): 0.865; relative viability (A-427; first compound 0.03162 µM): 0.767; relative viability (A-427; first compound 0.1 µM): 0.78; relative viability (A-427; first compound 0.3162 µM): 0.733; relative viability (A-427; first compound 1 µM): 0.379; relative viability (ABC-1; first compound 0.01 µM): 0.968; relative viability (ABC-1; first compound 0.03162 µM): 0.857; relative viability (ABC-1; first compound 0.1 µM): 0.893; relative viability (ABC-1; first compound 0.3162 µM): 0.938; relative viability (ABC-1; first compound 1 µM): 0.685; relative viability (BEN; first compound 0.01 µM): 1.05; relative viability (BEN; first compound 0.03162 µM): 1.04; relative viability (BEN; first compound 0.1 µM): 0.966; relative viability (BEN; first compound 0.3162 µM): 1.01; relative viability (BEN; first compound 1 µM): 0.658; relative viability (CAL-12T; first compound 0.01 µM): 0.908; relative viability (CAL-12T; first compound 0.03162 µM): 0.756; relative viability (CAL-12T; first compound 0.1 µM): 0.865; relative viability (CAL-12T; first compound 0.3162 µM): 0.489; relative viability (CAL-12T; first compound 1 µM): 0.2; relative viability (H3255; first compound 0.01 µM): 0.551; relative viability (H3255; first compound 0.03162 µM): 0.542; relative viability (H3255; first compound 0.1 µM): 0.59; relative viability (H3255; first compound 0.3162 µM): 0.518; relative viability (H3255; first compound 1 µM): 0.497; relative viability (LC-2-ad; first compound 0.01 µM): 0.818; relative viability (LC-2-ad; first compound 0.03162 µM): 0.772; relative viability (LC-2-ad; first compound 0.1 µM): 0.781; relative viability (LC-2-ad; first compound 0.3162 µM): 0.703; relative viability (LC-2-ad; first compound 1 µM): 0.606; relative viability (LCLC-97TM1; first compound 0.01 µM): 0.493; relative viability (LCLC-97TM1; first compound 0.03162 µM): 0.523; relative viability (LCLC-97TM1; first compound 0.1 µM): 0.438; relative viability (LCLC-97TM1; first compound 0.3162 µM): 0.552; relative viability (LCLC-97TM1; first compound 1 µM): 0.198; relative viability (NCI-H1650; first compound 0.01 µM): 0.787; relative viability (NCI-H1650; first compound 0.03162 µM): 0.863; relative viability (NCI-H1650; first compound 0.1 µM): 0.905; relative viability (NCI-H1650; first compound 0.3162 µM): 0.658; relative viability (NCI-H1650; first compound 1 µM): 0.23; relative viability (NCI-H1651; first compound 0.01 µM): 0.184; relative viability (NCI-H1651; first compound 0.03162 µM): 0.202; relative viability (NCI-H1651; first compound 0.1 µM): 0.156; relative viability (NCI-H1651; first compound 0.3162 µM): 0.153; relative viability (NCI-H1651; first compound 1 µM): 0.137; relative viability (NCI-H1792; first compound 0.01 µM): 0.336; relative viability (NCI-H1792; first compound 0.03162 µM): 0.421; relative viability (NCI-H1792; first compound 0.1 µM): 0.364; relative viability (NCI-H1792; first compound 0.3162 µM): 0.352; relative viability (NCI-H1792; first compound 1 µM): 0.221; relative viability (NCI-H1915; first compound 0.01 µM): 0.275; relative viability (NCI-H1915; first compound 0.03162 µM): 0.308; relative viability (NCI-H1915; first compound 0.1 µM): 0.272; relative viability (NCI-H1915; first compound 0.3162 µM): 0.209; relative viability (NCI-H1915; first compound 1 µM): 0.189; relative viability (NCI-H1944; first compound 0.01 µM): 0.46; relative viability (NCI-H1944; first compound 0.03162 µM): 0.448; relative viability (NCI-H1944; first compound 0.1 µM): 0.504; relative viability (NCI-H1944; first compound 0.3162 µM): 0.532; relative viability (NCI-H1944; first compound 1 µM): 0.446; relative viability (NCI-H2023; first compound 0.01 µM): 0.463; relative viability (NCI-H2023; first compound 0.03162 µM): 0.323; relative viability (NCI-H2023; first compound 0.1 µM): 0.171; relative viability (NCI-H2023; first compound 0.3162 µM): 0.111; relative viability (NCI-H2023; first compound 1 µM): 0.0963; relative viability (NCI-H2087; first compound 0.01 µM): 0.712; relative viability (NCI-H2087; first compound 0.03162 µM): 0.768; relative viability (NCI-H2087; first compound 0.1 µM): 0.806; relative viability (NCI-H2087; first compound 0.3162 µM): 0.858; relative viability (NCI-H2087; first compound 1 µM): 0.583; relative viability (NCI-H441; first compound 0.01 µM): 0.707; relative viability (NCI-H441; first compound 0.03162 µM): 0.795; relative viability (NCI-H441; first compound 0.1 µM): 0.675; relative viability (NCI-H441; first compound 0.3162 µM): 0.555; relative viability (NCI-H441; first compound 1 µM): 0.287; relative viability (NCI-H460; first compound 0.01 µM): 0.441; relative viability (NCI-H460; first compound 0.03162 µM): 0.35; relative viability (NCI-H460; first compound 0.1 µM): 0.261; relative viability (NCI-H460; first compound 0.3162 µM): 0.132; relative viability (NCI-H460; first compound 1 µM): 0.0653; relative viability (NCI-H520; first compound 0.01 µM): 0.367; relative viability (NCI-H520; first compound 0.03162 µM): 0.364; relative viability (NCI-H520; first compound 0.1 µM): 0.27; relative viability (NCI-H520; first compound 0.3162 µM): 0.223; relative viability (NCI-H520; first compound 1 µM): 0.194; relative viability (NCI-H596; first compound 0.01 µM): 0.723; relative viability (NCI-H596; first compound 0.03162 µM): 0.631; relative viability (NCI-H596; first compound 0.1 µM): 0.609; relative viability (NCI-H596; first compound 0.3162 µM): 0.552; relative viability (NCI-H596; first compound 1 µM): 0.478; relative viability (NCI-H650; first compound 0.01 µM): 0.417; relative viability (NCI-H650; first compound 0.03162 µM): 0.49; relative viability (NCI-H650; first compound 0.1 µM): 0.494; relative viability (NCI-H650; first compound 0.3162 µM): 0.446; relative viability (NCI-H650; first compound 1 µM): 0.337; relative viability (NCI-H661; first compound 0.01 µM): 0.798; relative viability (NCI-H661; first compound 0.03162 µM): 0.779; relative viability (NCI-H661; first compound 0.1 µM): 0.711; relative viability (NCI-H661; first compound 0.3162 µM): 0.503; relative viability (NCI-H661; first compound 1 µM): 0.426; relative viability (NCI-H727; first compound 0.01 µM): 0.735; relative viability (NCI-H727; first compound 0.03162 µM): 0.723; relative viability (NCI-H727; first compound 0.1 µM): 0.931; relative viability (NCI-H727; first compound 0.3162 µM): 0.717; relative viability (NCI-H727; first compound 1 µM): 0.543; relative viability (PC-3 [JPC-3]; first compound 0.01 µM): 1.19; relative viability (PC-3 [JPC-3]; first compound 0.03162 µM): 1.06; relative viability (PC-3 [JPC-3]; first compound 0.1 µM): 1.12; relative viability (PC-3 [JPC-3]; first compound 0.3162 µM): 1.05; relative viability (PC-3 [JPC-3]; first compound 1 µM): 0.634
